Literature values, collected in patent US20070117867A1, “Kit comprising three independent compositions and methods for building muscle, increasing strength, increasing muscle size, increasing muscle performance and reducing muscle fatigue” (priority 2005, published 2007).

How the values were obtained:
protein synthesis = conditions: for the purposes of muscle growth and development
muscle = conditions: Creatine supplementation

For `O=C(O)CCCCC1CCSS1` (stereo not drawn) [Alpha Lipoic Acid], the “body's utilization of blood sugar” value (type II diabetics) is listed as “significantly increase”.
For `CC(C)C[C@H](N)C(=O)O` [Leucine], the protein synthesis (protein synthesis) is given as “directly activate”.
In the case of `CN(CC(=O)O)C(=N)N` [Creatine], the “concentration of Creatine in the muscle” value (muscle) is listed as “increase” and the “resynthesis of Phosphocreatine” value (muscle; within 2 minutes of recovery following exercise) is listed as “increase”.
